PubChem BioAssay AID1918956 (Molecular Pharmacology Branch, DTP, NCI, 2023)
Where “and” joins values, the source holds several entries; their conditions need not be identical. Equal entries are not always repeated.

Test system: OVCAR-5 complex spheroids, viability
Assay: Anticancer human tumor OVCAR-5 cell line growth inhibition;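 further: spheroids exposed to agents for seven days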;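 on viability, T/C: 100% = DMSO vehicle control wells viability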
Details: for viability, T/C: stronger effect = lower value; for IC50: curve of compound
Description: Multicellular complex tumor spheroid response to LSD1 Inhibitor Iadademstat in combination with a variety of drugs and investigational agents in selected tumor cell lines
The current study was undertaken to assess response to LSD1 inhibitors in combination with standard-of-care drugs and investigational agents in solid tumor complex spheroid models as well as in the K-562 leukemia. Complex spheroids include a stromal component modeled by human endothelial cells (HUVEC) and fibroblasts modeled by human mesenchymal stem cells (MSCs). The concentration ranges selected for each drug and investigational agent were based upon clinically achievable concentrations if the clinical Cmax of the agent was known.
Compounds. The drugs and investigational agents used in this study are listed on Table 1. All of the agents used, including staurosporine (NSC755774) and gemcitabine (NSC613327), were obtained from the Developmental Therapeutics Program, NCI. FDA-approved anticancer drugs are available from the NCI at http://dtp.nci.nih.gov/branches/dscb/oncology_drugset_explanation.html. Drugs and investigational agents were >95% pure by proton nuclear magnetic resonance (NMR) and liquid chromatography/mass spectrometry (LC/MS). Stock solutions were prepared at 400x in DMSO, stored at -70 degrees C, and diluted in fresh medium prior to their use. The final concentration of DMSO in cell culture wells never exceeded 0.25% (v/v). The FDA-approved anticancer drug set is available from the Developmental Therapeutics Program at https://dtp.cancer.gov/organization/dscb/obtaining/available_plates.htm. All drugs and investigational agents were tested over a range starting from a high concentration at or near the clinical Cmax and decreasing in half-log increments. If the clinical Cmax for an agent had not been determined, the highest concentration tested was 10 microM.
Cell Lines. The patient-derived cancer cell (PDC) lines: 292921-168-R-J2-PDC, K24384-001-R-PDC, and 521955-158-R2-J5-PDC pancreatic carcinomas, 556581-035-R-J1 ovarian carcinoma, 324938-238-R-J1-PDC, 855422-203-R-J1-PDC and 883617-216-R-J1-PDC urothelial bladder carcinomas, 743489-274-T-PDC renal cell carcinoma, 138582-R-J1 Merkel cell tumor, K60290-347-R-J1 and K57222-313-R-J1-PDC glioblastomas, 653999-131-R-J2-PDC, LG0703-F948-PDC, and 349418-098-R-PDC non-small cell lung carcinomas, 885512-296-R-J2-PDC, 171881-019-R-J1-PDC breast carcinomas and 186277-243-T-J2-PDC and 233499-124-R-J2-PDC colon carcinomas were obtained from the NCI Patient-Derived Models Repository (PDMR, https://pdmr.cancer.gov). The established cell lines NCI/ADR-RES (RRID:CVCL_14520 and OVCAR-5 (RRID:CVCL_1628) ovarian carcinomas, 786-O (RRID:CVCL_1051) and A498 […] renal cell carcinoma, NCI-H211 (ATCC, cat. CRL-5824; RRID:CVCL_1529), NCI-H196 (ATCC, cat. CRL-5823, RRID:CVCL_1509), SW 1271 (ATCC, cat. CRL-2177, RRID:CVCL_1716) and NCI-H1876 (ATCC, cat. CRL-5902, RRID:CVCL_1503) small cell lung carcinomas, MDA-MB-231 (RRID:CVCL_0062) and MDA-MB-468 (RRID:CVCL_0419)breast carcinomas (10-12). Pooled donor human umbilical vein endothelial cells (HUVEC, Lonza, cat. CC-2519) and human mesenchymal stem cells (hMSC, Lonza, cat. PT-2501) were purchased from Lonza (Walkersville, MD).
Cell Culture. All cells were maintained in an incubator at 37 degrees C and 5% CO2 with 95% humidity. The PDC lines were cultured according to standard operating procedures established by the NCI PDMR (https://pdmr.cancer.gov). Briefly all PDCs were thawed and cultured in Matrigel-coated flasks prepared with a working solution of 1X Ham's F-12 nutrient mix, without supplementation (Invitrogen, Waltham, MA, cat. 11765054), 100 U/mL penicillin-streptomycin (Invitrogen, cat. 15140122), and 2.5% Matrigel (Corning Inc., Corning, NY, cat. 354248) for the first three passages. […]

IC50 | SMILES | viability, T/C (compound 0.000316 µM) | viability, T/C (compound 0.001 µM) | viability, T/C (compound 0.00316 µM) | viability, T/C (compound 0.01 µM) | viability, T/C (compound 0.0316 µM) | viability, T/C (compound 0.1 µM) | viability, T/C (compound 0.00949 µM) | viability, T/C (compound 0.03 µM) | viability, T/C (compound 0.0949 µM) | viability, T/C (compound 0.3 µM) | viability, T/C (compound 0.949 µM) | viability, T/C (compound 3 µM) | viability, T/C (compound 0.000949 µM) | viability, T/C (compound 0.003 µM) | viability, T/C (compound 0.316 µM) | viability, T/C (compound 1 µM)
> 100 nM | Cn1ncnc1C1c2n[nH]c(=O)c3cc(F)cc(c23)NC1c1ccc(F)cc1 (stereo unspecified) | 96.3% and 102% | 91.2% and 102% | 89% and 98.7% | 93.4% and 95.9% | 90.2% and 86% | 99.8% and 93.8% | – | – | – | – | – | – | – | – | – | –
219 nM and 172 nM | NS(=O)(=O)OCC1CC(n2ccc3c(NC4CCc5ccccc54)ncnc32)CC1O (stereo unspecified) | – | – | – | – | – | – | 105% and 120% | 102% and 114% | 82.6% and 75.8% | 37.4% and 25.6% | 16.1% and 7.66% | 9.41% and 4.92% | – | – | – | –
195 nM and 153 nM | Nc1ccccc1NC(=O)c1ccc(CNC(=O)OCc2cccnc2)cc1 | – | – | – | – | – | – | 102% and 86.1% | 81.6% and 80.2% | 63.8% and 59.6% | 41.9% and 34.8% | 23.9% and 19.3% | 8.2% and 8.35% | – | – | – | –
< 0.949 nM | Nc1ccn(C2OC(CO)C(O)C2(F)F)c(=O)n1 (stereo unspecified) | – | – | – | – | – | – | 29.2% and 28.1% | 28.8% and 29.1% | 30.1% and 28.8% | 29.1% and 28.3% | – | – | 27.5% and 26.9% | 29.6% and 29.3% | – | –
> 1000 nM | Nc1ncn(C2CC(O)C(CO)O2)c(=O)n1 (stereo unspecified) | – | – | 93.5% and 108% | 94% and 87.9% | 88.2% and 75.7% | 77.1% and 76.2% | – | – | – | – | – | – | – | – | 72.5% and 69% | 72.5% and 69.2%
> 300 nM | Nc1ncn(C2CC(O)C(CO)S2)c(=O)n1 (stereo unspecified) | – | – | – | – | – | – | 104% | 97.1% and 94.2% | 82.2% and 85.6% | 78.2% and 72.3% | – | – | 107% and 104% | 104% and 109% | – | –
156 nM and 118 nM | O=C(C=Cc1cccc(S(=O)(=O)Nc2ccccc2)c1)NO | – | – | – | – | – | – | 89.1% and 94.7% | 88.7% and 80.5% | 61.9% and 55.5% | 31.6% and 27.4% | 15.4% and 10.4% | 4.04% and 2.72% | – | – | – | –
196 nM and 63.7 nM | O=C(C=Cn1cnc(-c2cc(C(F)(F)F)cc(C(F)(F)F)c2)n1)NNc1cnccn1 | – | – | 91.8% and 90.3% | 83.9% and 74.8% | 72.3% and 58.3% | 53.3% and 44% | – | – | – | – | – | – | – | – | 48.7% and 38.9% | 40.4% and 34.1%
